Laboratory results from patent US20170000133A1, “BENZOXABOROLE FUNGICIDES” (SYNGENTA PARTICIPATIONS AG, priority 2013, published 2017).

Assays:
Pythium ultimum = Pythium ultimum / liquid culture (seedling damping off); type: cell-based; conditions: Globisporangium ultimum; 200 ppm; potato dextrose broth, 24° C., 2-3 days after application; read-out: disease control (inhibition of growth determined photometrically)
Phytophthora infestans = assay: whole plant or invertebrate; type: in vivo; conditions: in Solanum lycopersicum, foliar, read-out: disease control
Gaeumannomyces graminis = Gaeumannomyces graminis / liquid culture (take-all of cereals); type: cell-based; conditions: PDB potato dextrose broth, 24° C., 4-5 days after application, read-out: disease control (inhibition of growth determined photometrically)
Summary of the method: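 Growth inhibition measured photometrically 4–5 days post-application, following incubation at 24 °C. Test compound, applied from DMSO at 200 ppm, mixed with fungal mycelial fragments in potato dextrose broth.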

Plasmopara viticola = assay: whole plant or invertebrate; type: in vivo; conditions: foliar, read-out: disease control
[1] = system: Monographella nivalis (Microdochium nivale); assay: Monographella nivalis (Microdochium nivale) / liquid culture (foot rot cereals); type: cell-based; conditions: PDB potato dextrose broth, 24° C., 4-5 days after application, read-out: disease control (inhibition of growth determined photometrically)
[2] = system: Glomerella lagenarium (Colletotrichum lagenarium); assay: Glomerella lagenarium (Colletotrichum lagenarium) / liquid culture (anthracnose); type: cell-based; conditions: Colletotrichum orbiculare, PDB potato dextrose broth, 24° C., 3-4 days after application, read-out: disease control (inhibition of growth measured photometrically)
Summary of the method: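 Compound was applied at 200 ppm from DMSO solution, then potato dextrose broth carrying cryostored fungal spores was added. Growth inhibition was measured by photometry after 3-4 days of incubation at 24° C.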

[3] = system: Mycosphaerella graminicola (Septoria tritici); assay: Mycosphaerella graminicola (Septoria tritici) / liquid culture (Septoria blotch); type: cell-based; conditions: Zymoseptoria tritici, PDB potato dextrose broth, 24° C., 4-5 days after application, read-out: disease control (inhibition of growth determined photometrically)
Summary of the method: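 Growth inhibition was read photometrically 4-5 days after application, following incubation at 24° C of fungal conidia in potato dextrose broth over test compound (200 ppm, from DMSO solution) in microtiter plates.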

Fusarium culmorum = assay: microbe, parasite or virus in culture; type: cell-based; conditions: read-out: disease control (inhibition of growth determined visually)
[4] = system: Thanatephorus cucumeris (Rhizoctonia solani); assay: Thanatephorus cucumeris (Rhizoctonia solani) / liquid culture (foot rot, damping-off); type: cell-based; conditions: PDB potato dextrose broth, 24° C., 3-4 days after application, read-out: disease control (inhibition of growth determined photometrically)
Summary of the method: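 Photometric growth-inhibition readout taken 3-4 days after application, with cultures incubated at 24 °C. Test compound was applied at 200 ppm from DMSO solution to R. solani mycelial fragments in PDB.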

CCOC(=O)C1CC=CCC1NC(=O)c1cc2c(cc1F)COB2O (stereo not drawn) [Compound 78]
≥ 80%: inhibition at 200 ppm (Pythium ultimum) | pest or weed control at 200 ppm (Phytophthora infestans) | inhibition at 200 ppm (Gaeumannomyces graminis)

O=C(NCCSCc1ccccc1)c1cc2c(cc1F)COB2O [Compound 84]
≥ 80%: pest or weed control at 200 ppm (Plasmopara viticola) | inhibition at 200 ppm (Pythium ultimum) | pest or weed control at 200 ppm (Phytophthora infestans)

C#CC1(NC(=O)c2cc3c(cc2F)COB3O)CCCCC1 [Compound 90]
≥ 80%: inhibition at 200 ppm (Pythium ultimum) | pest or weed control at 200 ppm (Phytophthora infestans) | inhibition at 200 ppm [1]

Cc1cccc(Cl)c1NC(=O)c1cc2c(cc1Cl)COB2O [Compound 114]
≥ 80%: pest or weed control at 200 ppm (Plasmopara viticola) | inhibition at 200 ppm [2] | inhibition at 200 ppm [3] | pest or weed control at 200 ppm (Phytophthora infestans) | inhibition at 200 ppm [1] | inhibition at 200 ppm (Fusarium culmorum)

O=C(NCc1cccc(Cl)c1)c1cc2c(cc1F)COB2O [Compound 119]
≥ 80%: pest or weed control at 200 ppm (Plasmopara viticola) | inhibition at 200 ppm (Pythium ultimum) | pest or weed control at 200 ppm (Phytophthora infestans)

O=C(NCc1ccc2c(c1)OCCO2)c1cc2c(cc1F)COB2O [Compound 121]
≥ 80%: pest or weed control at 200 ppm (Plasmopara viticola) | inhibition at 200 ppm (Pythium ultimum) | pest or weed control at 200 ppm (Phytophthora infestans)

COc1ccc(CNC(=O)c2cc3c(cc2F)COB3O)cc1 [Compound 124]
≥ 80%: pest or weed control at 200 ppm (Plasmopara viticola) | inhibition at 200 ppm (Pythium ultimum) | pest or weed control at 200 ppm (Phytophthora infestans)

O=C(NCc1ccccc1OC(F)(F)F)c1cc2c(cc1F)COB2O [Compound 128]
≥ 80%: inhibition at 200 ppm (Pythium ultimum) | pest or weed control at 200 ppm (Phytophthora infestans)

COc1ccc(-c2ccccc2)cc1NC(=O)c1cc2c(cc1Cl)COB2O [Compound 129]
≥ 80%: inhibition at 200 ppm (Pythium ultimum) | inhibition at 200 ppm [3] | pest or weed control at 200 ppm (Phytophthora infestans) | inhibition at 200 ppm (Gaeumannomyces graminis) | inhibition at 200 ppm [1]

O=C(NCc1ccccc1C(F)(F)F)c1cc2c(cc1F)COB2O [Compound 132]
≥ 80%: pest or weed control at 200 ppm (Plasmopara viticola) | inhibition at 200 ppm (Pythium ultimum) | inhibition at 200 ppm [2] | pest or weed control at 200 ppm (Phytophthora infestans) | inhibition at 200 ppm (Gaeumannomyces graminis) | inhibition at 200 ppm [1]

O=C(NCc1ccc(Cl)nc1)c1cc2c(cc1F)COB2O [Compound 138]
≥ 80%: inhibition at 200 ppm (Pythium ultimum) | pest or weed control at 200 ppm (Phytophthora infestans)

COC(=O)c1cc2cc(NC(=O)c3cc4c(cc3F)COB4O)ccc2s1 [Compound 163]
≥ 80%: inhibition at 200 ppm (Pythium ultimum) | pest or weed control at 200 ppm (Phytophthora infestans)

CC(=O)c1sc(NC(=O)c2cc3c(cc2F)COB3O)nc1C [Compound 181]
≥ 80%: inhibition at 200 ppm (Pythium ultimum) | pest or weed control at 200 ppm (Phytophthora infestans) | inhibition at 200 ppm [1]

O=C(Nc1cc(-c2ccccc2)[nH]n1)c1cc2c(cc1F)COB2O [Compound 182]
≥ 80%: pest or weed control at 200 ppm (Plasmopara viticola) | inhibition at 200 ppm (Pythium ultimum) | pest or weed control at 200 ppm (Phytophthora infestans)

CC(C#N)OC(=O)c1cc2c(cc1Cl)COB2O (stereo not drawn) [Compound 193]
≥ 80%: inhibition at 200 ppm (Pythium ultimum) | pest or weed control at 200 ppm (Phytophthora infestans)

COC(=O)C(C)OC(=O)c1cc2c(cc1Cl)COB2O (stereo not drawn) [Compound 206]
≥ 80%: inhibition at 200 ppm [4] | inhibition at 200 ppm (Pythium ultimum) | pest or weed control at 200 ppm (Phytophthora infestans)

C#CC(OC(=O)c1cc2c(cc1Cl)COB2O)c1ccccc1 (stereo not drawn) [Compound 211]
≥ 80%: pest or weed control at 200 ppm (Plasmopara viticola) | inhibition at 200 ppm [4] | inhibition at 200 ppm (Pythium ultimum) | inhibition at 200 ppm [2] | inhibition at 200 ppm [3] | pest or weed control at 200 ppm (Phytophthora infestans) | inhibition at 200 ppm [1]

O=C(OCc1ccc(C(F)(F)F)nc1)c1cc2c(cc1Cl)COB2O [Compound 217]
≥ 80%: inhibition at 200 ppm (Pythium ultimum) | inhibition at 200 ppm [2] | pest or weed control at 200 ppm (Phytophthora infestans) | inhibition at 200 ppm (Gaeumannomyces graminis) | inhibition at 200 ppm [1]

N#CCCOC(=O)c1cc2c(cc1Cl)COB2O [Compound 231]
≥ 80%: inhibition at 200 ppm (Pythium ultimum) | pest or weed control at 200 ppm (Phytophthora infestans)

O=C(OCC(F)F)c1cc2c(cc1Cl)COB2O [Compound 236]
≥ 80%: inhibition at 200 ppm (Pythium ultimum) | inhibition at 200 ppm [2] | inhibition at 200 ppm [3] | pest or weed control at 200 ppm (Phytophthora infestans) | inhibition at 200 ppm (Gaeumannomyces graminis) | inhibition at 200 ppm [1]
